Results as given in patent US20250154173A1 (Merck Sharp & Dohme LLC, priority 2023, published 2025).

Target: T1, GST-RIPK1 (recombinant GST-RIPK1 kinase domain (residues 1-327)) (Homo sapiens, UniProt Q13546)
T1 construct: recombinant GST-RIPK1 kinase domain (residues 1-327) enzyme produced from baculovirus-transfected Sf21 cells; host or cells: baculovirus-transfected Sf21 insect cells
T1 sequence (Q13546 1-327): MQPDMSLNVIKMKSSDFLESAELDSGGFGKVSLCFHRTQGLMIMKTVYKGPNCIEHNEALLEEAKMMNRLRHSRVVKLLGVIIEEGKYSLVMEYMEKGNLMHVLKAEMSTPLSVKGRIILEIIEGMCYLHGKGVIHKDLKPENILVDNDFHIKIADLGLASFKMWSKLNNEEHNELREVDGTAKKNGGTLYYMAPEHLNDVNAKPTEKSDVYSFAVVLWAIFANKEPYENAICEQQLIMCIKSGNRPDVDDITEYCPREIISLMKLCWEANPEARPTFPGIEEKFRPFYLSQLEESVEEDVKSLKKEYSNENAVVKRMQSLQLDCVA
Assay: RIPK1-ADP-Glo Enzymatic Assay
Assay type: biochemical
Settings: ten-point titration, top compound concentration of 100000 nM; 25 nM GST-RIPK1, 300 μM ATP, 3 μM dephosphorylated-MBP; 30 min pre-incubation, 150 min reaction
How it was run: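 GST-RIPK1 kinase domain (residues 1-327, Sf21-expressed), 25 nM, preincubated 30 min with compound, then reacted 150 min with 300 μM ATP and 3 μM dephosphorylated MBP in pH 7.3 Hepes buffer, 1% DMSO. ADP measured by ADP-Glo luminescence; EC50 from ten-point titration (top 100000 nM), four-parameter fit.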

EC50 | Compound
10.2 nM | O=C1N2[C@@H](CC[C@H]2c2ncccc2F)OC12CC(Oc1ncnn3cccc13)C2 (stereo partly drawn) [Example 9.62, (5′S,7a′R)-5′-(3-fluoropyridin-2-yl)-3-[(pyrrolo[2,1-f][1,2,4]triazin-4-yl)oxy]tetrahydro-3′H-spiro[cyclobutane-1,2′-pyrrolo[2,1-b][1,3]oxazol]-3′-one]
33.3 nM | Cn1ccc([C@@H]2CC[C@H]3O[C@]4(C[C@H](Oc5ncnn6cccc56)C4)C(=O)N32)n1 [Example 9.63, (1r,3R,5′S,7a′R)-5′-(1-methyl-1H-pyrazol-3-yl)-3-[(pyrrolo[2,1-f][1,2,4]triazin-4-yl)oxy]tetrahydro-3′H-spiro[cyclobutane-1,2′-pyrrolo[2,1-b][1,3]oxazol]-3′-one]
124 nM | Cn1ccc([C@@H]2CC[C@H]3OC4(CC(Oc5cnccn5)C4)C(=O)N32)n1 (stereo partly drawn) [Example 9.64, (5′S,7a′R)-5′-(1-methyl-1H-pyrazol-3-yl)-3-[(pyrazin-2-yl)oxy]tetrahydro-3′H-spiro[cyclobutane-1,2′-pyrrolo[2,1-b][1,3]oxazol]-3′-one]
13 nM | O=C1N2C(CCC2c2ccc(F)cn2)OC12CC(Oc1ncnn3cccc13)C2 (centres unmarked) [Example 9.65, 5′-(5-fluoropyridin-2-yl)-3-[(pyrrolo[2,1-f][1,2,4]triazin-4-yl)oxy]tetrahydro-3′H-spiro[cyclobutane-1,2′-pyrrolo[2,1-b][1,3]oxazol]-3′-one]
21 nM | O=C1N2[C@@H](CC[C@H]2c2cnccn2)OC12CC(Oc1cnccn1)C2 (stereo partly drawn) [Example 9.66, (5′S,7a′R)-5′-(pyrazin-2-yl)-3-[(pyrazin-2-yl)oxy]tetrahydro-3′H-spiro[cyclobutane-1,2′-pyrrolo[2,1-b][1,3]oxazol]-3′-one]
9 nM | N#Cc1ccnc(O[C@H]2C[C@@]3(C2)O[C@@H]2CC[C@@H](c4cc(F)cc(F)c4)N2C3=O)c1 [Example 10.1, 2-(((1r,3R,5′S,7a′R)-5′-(3,5-difluorophenyl)-3′-oxotetrahydro-3′H-spiro[cyclobutane-1,2′-pyrrolo[2,1-b]oxazol]-3-yl)oxy)isonicotinonitrile]
18 nM | NC(=O)c1ccnc(O[C@H]2C[C@@]3(C2)O[C@@H]2CC[C@@H](c4cc(F)cc(F)c4)N2C3=O)c1 [Example 10.2, 2-(((1r,3R,5′S,7a′R)-5′-(3,5-difluorophenyl)-3′-oxotetrahydro-3′H-spiro[cyclobutane-1,2′-pyrrolo[2,1-b]oxazol]-3-yl)oxy)isonicotinamide]
11 nM | O=C1N2[C@@H](CC[C@H]2c2cc(F)cc(F)c2)O[C@]12C[C@H](Oc1cc(-c3nn[nH]n3)ccn1)C2 [Example 10.3, (1r,3R,5′S,7a′R)-3-((4-(2H-tetrazol-5-yl)pyridin-2-yl)oxy)-5′-(3,5-difluorophenyl)tetrahydro-3′H-spiro[cyclobutane-1,2′-pyrrolo[2,1-b]oxazol]-3′-one]
13 nM | N#Cc1ccnc(O[C@H]2C[C@@]3(C2)O[C@@H]2CC[C@@H](c4ccccc4)N2C3=O)c1 [Example 10.4, 2-(((1r,3R,5′S,7a′R)-3′-oxo-5′-phenyltetrahydro-3′H-spiro[cyclobutane-1,2′-pyrrolo[2,1-b]oxazol]-3-yl)oxy)isonicotinonitrile]
20 nM | NC(=O)c1ccnc(O[C@H]2C[C@@]3(C2)O[C@@H]2CC[C@@H](c4ccccc4)N2C3=O)c1 [Example 10.5, 2-(((1r,3R,5′S,7a′R)-3′-oxo-5′-phenyltetrahydro-3′H-spiro[cyclobutane-1,2′-pyrrolo[2,1-b]oxazol]-3-yl)oxy)isonicotinamide]
52 nM | NC(=O)c1ccnc(O[C@H]2C[C@@]3(C2)O[C@@H]2CC[C@@H](c4ccc(F)cc4)N2C3=O)c1 [Example 10.6, 2-(((1r,3R,5′S,7a′R)-5′-(4-fluorophenyl)-3′-oxotetrahydro-3′H-spiro[cyclobutane-1,2′-pyrrolo[2,1-b]oxazol]-3-yl)oxy)isonicotinamide]
